Test results as given in publication PMC8485799, “Synthesis and Antiprotozoal Profile of 3,4,5‐Trisubstituted Isoxazoles” (ChemistryOpen, 2021).

Tests used:
[1] = test system: epimastigote forms of Trypanosoma cruzi (Y strain); assay: Antiproliferative assay (XTT), epimastigote forms, 96 h; assay type: cell-based; conditions: for IC50: Trypanosoma cruzi, epimastigote form, 96 h, XTT, read-out: T. cruzi IC50; for SIT-F, selectivity index (Fibroblast CC50/T. cruzi IC50): fibroblast vs epimastigote; for SIT-M, selectivity index (Macrophages CC50/T. cruzi IC50): macrophages vs epimastigote
Description: (§1) The antiproliferative activity was determined in promastigote forms of Leishmania amazonensis (WHOM/BR/75/JOSEFA strain) and epimastigote forms of Trypanosoma cruzi (Y strain). The promastigote forms of L. amazonensis were cultured in Warren medium (brain heart infusion, hemin, and folic acid; pH 7.4) supplemented with 10 % fetal bovine serum (FBS) at 25 °C. The epimastigote forms of T.cruzi were cultured in LIT medium (liver infusion tryptose; hemin, and folic acid; pH 7.4) supplemented with 10 % FBS at 28 °C. Cytotoxicity in mammalian cells was determined in fibroblast line (L929) and macrophages (J774 A1). Fibroblasts were cultured in DMEM medium (pH 7.2) supplemented with 10 % FBS at 37 °C in a 5 % CO2 atmosphere. Macrophages were cultured in RPMI‐1640 (pH 7.2) medium supplemented with 10 % FBS at 37 °C in a 5 % CO2 atmosphere.
(§2) Stock solutions of the compounds were prepared in DMSO and then diluted in the respective medium.
(§3) Promastigote forms (1×10^6 parasites.mL^−1) were cultured in 96‐well plates in the presence and absence of different concentrations of compounds diluted in Warren medium supplemented with 10 % FBS and incubated for 72 h. The epimastigote forms (1×10^6 parasites.mL^−1) were cultured in 96‐well plates in the presence and absence of different concentrations of compounds diluted in LIT medium supplemented with 10 % FBS and incubated for 96 h. After treatment, the parasites were incubated with a solution of 2,3‐bis(2‐methoxy‐4‐nitro‐5‐sulfophenyl)‐2H‐tetrazolium‐5‐carboxanilide (XTT; 0.5 mg.mL^−1) and phenazine methanesulfonate activator (PMS; 0.06 mg.mL^−1) in PBS for 4 h. Then, the absorbance was read in a microplate reader (Bio Tek‐Power Wave XS) at 450 nm.[20] The percentage of viable parasites was calculated in relation to the control in order to determine the concentration that inhibits 50 % of the protozoa (IC50). The control groups of each experiment received the same experimental conditions as the treated groups (cell concentration used, temperature, and incubation time).

[2] = test system: promastigote forms of Leishmania amazonensis (WHOM/BR/75/JOSEFA strain); assay: Antiproliferative assay (XTT), promastigote forms, 72 h; assay type: cell-based; conditions: for IC50: Leishmania amazonensis, promastigote form, 72 h, XTT, read-out: L. amazonensis IC50; for SIL-F, selectivity index (Fibroblast CC50/L. amazonensis IC50): fibroblast vs promastigote; for SIL-M, selectivity index (Macrophages CC50/L. amazonensis IC50): macrophages vs promastigote
Description: as §1, §2, §3

[3] = Cytotoxicity assay in mammalian cells (MTT), macrophages, 48 h; assay type: cell-based; conditions: mouse, J774 A1 macrophages, pH 7.2; 50 % inhibition of macrophages growth, 48 h, MTT
Description: as §1, §2
(§4) Fibroblast cell (2.5×10^5 cells.mL^−1) suspensions were prepared in DMEM medium supplemented with 10 % FBS and added to 96‐well plates. Then, the plates were incubated at 37 °C in a CO2 atmosphere for 24 h to obtain confluent cell growth. After incubation, cells were treated with different concentrations of compounds diluted in DMEM for 72 h or left untreated. Macrophage (5×10^5 cells.mL^−1) suspensions were prepared in RPMI‐1640 medium supplemented with 10 % FBS and added to 96‐well plates. Then, the plates were incubated at 37 °C in a CO2 atmosphere for 24 h to obtain confluent cell growth. After incubation, cells were treated with different concentrations of compounds diluted in RPMI‐1640 for 48 h or left untreated. After treatment, the medium was removed, and cells were incubated with MTT (2 mg.mL^−1) for 4 h. Then, DMSO was added for solubilization of the formazan and analyzed with a reading microplate reader (BIO‐TEK PowerWave XS spectrophotometer) at […].[20] The percentage of viable cells was calculated in relation to the untreated control group to determine the cytotoxic concentration in 50 % of the cells (CC50). The control groups of each experiment received the same experimental conditions as the treated groups (cell concentration used, temperature, CO2, and incubation time).

[4] = Cytotoxicity assay in mammalian cells (MTT), fibroblasts, 72 h; assay type: cell-based; conditions: mouse, L929 fibroblast cells, pH 7.2; 50 % inhibition of fibroblast growth, 72 h, MTT
Description: as §1, §2, §4

Structure (SMILES)	IC50 [1]	melting point	SIT-F, selectivity index (Fibroblast CC50/T. cruzi IC50) [1]	SIT-M, selectivity index (Macrophages CC50/T. cruzi IC50) [1]	IC50 [2]	SIL-F, selectivity index (Fibroblast CC50/L. amazonensis IC50) [2]	SIL-M, selectivity index (Macrophages CC50/L. amazonensis IC50) [2]	CC50 at 48 h [3]	CC50 at 72 h [4]
O=C(N/N=C/c1ccc(-c2cccs2)s1)c1noc(-c2ccc(Cl)cc2)c1CNc1ccccc1 [6 da]	27.2 ± 2.5 µM	208.4 to 209.9 °C	12.76	11.47	28 ± 1.3 µM	12.39	11.14	312 ± 4.3 µM	347 ± 8.4 µM
O=C(N/N=C/c1ccccn1)c1noc(-c2ccc([N+](=O)[O-])cc2)c1CNc1ccccc1 [5 aa, 3‐[(2E)‐N'‐(2‐pyridinylmethylene)hydrazinecarbonyl]‐4‐(phenyl)aminomethyl‐5‐(4‐nitrophenyl)isoxazole]	123 ± 10.9 µM	223.8 to 225.5 °C	3.31	3.16	126 ± 2.1 µM	3.24	3.09	388 ± 7.9 µM	407.3 ± 3.9 µM
CCOC(=O)c1noc(-c2ccc(Cl)cc2)c1CNc1ccc(Cl)cc1 [2 db]	22.4 ± 2.6 µM	173.3 to 175.4 °C	4.44	3.92	21.6 ± 2.2 µM	4.61	4.07	87.9 ± 4.6 µM	99.5 ± 5.7 µM
O=C(N/N=C/c1ccc(-c2cccs2)s1)c1noc(-c2ccc(F)cc2)c1CNc1ccccc1 [6 ca]	42.7 ± 5.6 µM		9.07	7.22	34.6 ± 2.4 µM	11.2	8.92		388 ± 4.7 µM
O=C(N/N=C/c1ccc(-c2cccs2)s1)c1noc(-c2ccc(Cl)cc2)c1CNc1ccc(Cl)cc1 [6 db]	33.6 ± 4.8 µM		9.21	8.94	38.5 ± 4.6 µM	8.04	7.81	300 ± 4.2 µM	310 ± 3.1 µM
COc1ccc(NCc2c(C(=O)N/N=C/c3ccc(-c4cccs4)s3)noc2-c2ccc(F)cc2)cc1 [6 cc]	22.8 ± 3 µM		13.84	11.71	20.6 ± 1.7 µM	15.32	12.97	267 ± 7.9 µM	316 ± 10.8 µM
O=C(N/N=C/c1ccccn1)c1noc(-c2ccc([N+](=O)[O-])cc2)c1CNc1ccc(Cl)cc1 [5 ab]	24.7 ± 2.9 µM		4.08	3.81	26 ± 2.1 µM	3.88	3.55	94.2 ± 3.9 µM	101 ± 4.4 µM
COc1ccc(NCc2c(C(=O)N/N=C/c3ccccn3)noc2-c2ccccc2)cc1 [5 bc]	19.4 ± 1.1 µM		9.50	9.11	17.9 ± 3.7 µM	10.3	9.88	177 ± 9.8 µM	184 ± 5.1 µM
O=C(N/N=C/c1ccc(-c2cccs2)s1)c1noc(-c2ccccc2)c1CNc1ccccc1 [6 ba]	52.4 ± 2.9 µM		3.98	3.75	46.9 ± 3 µM	4.45	4.19	196 ± 4.4 µM	209 ± 2.9 µM
COc1ccc(NCc2c(C(=O)N/N=C/c3ccc(-c4cccs4)s3)noc2-c2ccc([N+](=O)[O-])cc2)cc1 [6 ac]	52.5 ± 2.9 µM		4.40	3.50	48.9 ± 7.1 µM	4.72	3.75	184 ± 3 µM	231 ± 5.9 µM
COc1ccc(NCc2c(C(=O)N/N=C/c3ccccn3)noc2-c2ccc([N+](=O)[O-])cc2)cc1 [5 ac]	> 200 µM				> 200 µM			723.6 ± 3 µM	801 ± 10.4 µM
O=C(N/N=C/c1ccc(-c2cccs2)s1)c1noc(-c2ccc([N+](=O)[O-])cc2)c1CNc1ccc(Cl)cc1 [6 ab]	13.8 ± 1.5 µM		8.39	6.91	12.7 ± 1.1 µM	9.12	7.50	95.3 ± 5.3 µM	116 ± 5.5 µM

Now from value to compound, other results behind:

IC50 [1]	melting point	Structure (SMILES)	SIT-F, selectivity index (Fibroblast CC50/T. cruzi IC50) [1]	SIT-M, selectivity index (Macrophages CC50/T. cruzi IC50) [1]	IC50 [2]	SIL-F, selectivity index (Fibroblast CC50/L. amazonensis IC50) [2]	SIL-M, selectivity index (Macrophages CC50/L. amazonensis IC50) [2]	CC50 at 48 h [3]	CC50 at 72 h [4]
98.7 ± 10.1 µM	167.9 to 170.5 °C	O=C(N/N=C/c1ccccc1)c1noc(-c2ccc(F)cc2)c1CNc1ccc(Cl)cc1 [4 cb]	3.86	3.69	87.3 ± 6.4 µM	4.37	4.18	365 ± 8.7 µM	381 ± 6.9 µM
27 ± 1.1 µM	188.4 to 190.1 °C	O=C(N/N=C/c1ccccc1)c1noc(-c2ccccc2)c1CNc1ccc(Cl)cc1 [4 bb]	11.91	11.30	27.8 ± 0.7 µM	11.57	10.98	305 ± 7.4 µM	322 ± 9.7 µM
20.4 ± 3.6 µM		O=C(N/N=C/c1ccc(-c2cccs2)s1)c1noc(-c2ccc(F)cc2)c1CNc1ccc(Cl)cc1 [6 cb]	10.5	10.3	19.7 ± 2.6 µM	10.9	10.6	210 ± 3.1 µM	215 ± 8.9 µM
19.7 ± 0.9 µM		COc1ccc(NCc2c(C(=O)N/N=C/c3ccccn3)noc2-c2ccc(F)cc2)cc1 [5 cc]	14.76	12.96	18 ± 2.5 µM	16.16	14.18	255 ± 8.1 µM	291 ± 4.7 µM
18.7 ± 1.4 µM		COc1ccc(NCc2c(C(=O)N/N=C/c3ccccc3)noc2-c2ccc([N+](=O)[O-])cc2)cc1 [4 ac]	12.89	11.19	14.5 ± 2.2 µM	16.63	14.43	209 ± 8.5 µM	241 ± 3.8 µM
